For data set [1], the system named is histamine-induced bronchoconstriction. The data set can be described thus: β-adrenergic stimulant activity, block of histamine-induced bronchoconstriction in the dog. The data set is classed as in vivo.
Another data set concerns β-adrenergic. The data set is described as follows: β-adrenergic blocking activity, inhibition of isoproterenol-elicited heart rate increase in pentobarbitalized dog. The data set is classed as in vivo. The settings on record: i.v., pentobarbitalized dog.
The subject of data set [2] is isolated rabbit ear artery. The data set can be described thus: Vasodilator activity, perfusion pressure in isolated rabbit ear artery. Summed up: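 Percent reduction in perfusion pressure of the isolated rabbit ear artery (De LaLande method) as the vasodilation read-out; vasodilator activity also judged from reduced hind-limb perfusion pressure in the anesthetized dog.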

A further data set has as its system hind limb vasculature. The data set can be described thus: Vasodilator activity, perfusion pressure in hind limb vasculature of anesthetized dog. The data set is classed as in vivo. The text has this:
Vasodilator activity was judged on the basis of observed reduction in perfusion pressure in the hind limb vasculature of the anesthetized dog determined according to the procedure described by Jandhyala et al., European J. Pharm. 17, 357 (1972), and also on the basis of percent reduction in perfusion pressure as measured in the isolated rabbit ear artery according to the method described by De LaLande et al., Aust. J. Exp. Biol. Med. Sci. 43, 639 (1965).
^c AED50 = approximate intraarterial dose required to cause a 50

In a further data set the test system is blood pressure. The data set is described as follows: Antihypertensive activity, sustained lowering of blood pressure, repeated oral medication, unanesthetized trained renal hypertensive dog. The data set is classed as in vivo. The settings on record: tid.
For another data set, the system named is systolic blood pressure. The data set can be described thus: Antihypertensive activity, reduction in systolic blood pressure, single oral medication, unanesthetized spontaneous hypertensive rat. The data set is classed as in vivo. The settings on record: P.O., single dose, unanesthetized SH rat.
Another data set is described as follows: 7-day oral LD50 in rats. The data set is classed as in vivo.
The test system of data set [3] is cardiac contractile force. The data set is described as follows: Cardiotonic test procedure II, intact anesthetized dog. The settings on record: i.v. infusion 10 mcg./kg./min. over 3 hrs. The data set is classed as in vivo, mongrel dogs. Here is the method:
The efficacy of this compound was judged, in vitro, on the basis of percent increase in contractile force in isolated cat atria and papillary muscle and, in vitro, on the basis of percent increase in cardiac contractile force in the intact anesthetized dog. The in vivo test procedure used is described as follows: Mongrel dogs of both sexes and varying in weight from 9 to 15 kg. were anesthetized with 30 mg./kg. pentobarbital sodium administered intravenously. The trachea was exposed and cannulated. The tracheal cannula was then attached to a Harvard respiratory pump using room air. The right femoral artery and vein were cannulated. […] The venous cannula was used for the intravenous administration of drugs. Pin electrodes were attached to the right forelimb and left hindlimb. The electrodes were then connected to a Grass polygraph for the continuous recording of the standard limb lead II electrocardiogram. A ventro-dorsal incision at the third inter-costal space was made, the ribs laterally retracted and the pericardium slit open to expose the myocardium. The base of the aorta was dissected and a flow probe was fitted around it. The flow probe was attached to a square wave electromagnetic flowmeter (Carolina Medical Electronics). The flowmeter was then connected to a Grass polygraph for the continuous recording of aortic blood flow. This flow was used as an index of cardiac output (actual cardiac output is aortic blood flow+coronary blood flow). Cardiac contractile force was measured by suturing a Walton-Brodie strain gauge to the wall of the right ventricle. At the end of the surgical procedure, the animal was left to rest and equilibrate for one hour with continuous recording of blood pressure, EKG, cardiac contractile force and aortic blood flow. After the equilibration period, the vehicle or the drug dissolved in the vehicle was administered by intravenous infusion (i.v. inf.), intravenous bolus (i.v. bol.) or intraduodenally (i.d.) and the response of all the parameters measured to drug administration was recorded continuously for different periods of times depending on the route of drug administration. When the route of administration was i.v. inf., the drug was administered until a peak effect was reached and infusion was then maintained for ten minutes. The above-described test systems were standardized using dopamine.

In data set [4] the test system is Ouabain-induced arrhythmia. The data set can be described thus: Conversion of ouabain-induced arrhythmia in dogs. The data set is classed as in vivo, mongrel dogs. Also noted: key: active (A); inactive (I). The settings on record: 5 × 10^-6 M/kg. The protocol: (§1) The test procedures were carried out as follows.
Na-pentobarbital supplements were given i.v. as needed.
Both parameters were printed out on a Grass polygraph.

The subject of the next data set is isolated cat atria. The data set is described as follows: Cardiotonic test procedure I, isolated cat atria. The settings on record: for Increase in right atrial force / Increase in right atrial rate: in vitro. The protocol: The efficacy of this compound was judged, in vitro, on the basis of percent increase in contractile force in isolated cat atria and papillary muscle and, in vitro, on the basis of percent increase in cardiac contractile force in the intact anesthetized dog. Male cats weighing from 0.8 to 1.5 kg. were anesthetized with α-chloralose (80 mg./kg. i.p.). The chest was opened, the heart excised and the two atria dissected. A silk suture was tied to each of two opposite sides of the right atrium. One side of the atrium was tied to a glass rod and then mounted in a 50 ml. organ bath filled with Tyrode's solution. […] The transducer was then connected to a Grass polygraph and the force and rate of atrial contraction was recorded continuously. The left atrium was treated similarly using silver wire instead of silk sutures. The silver wire also served as a stimulating electrode. Both atria were mounted in the same bath. The right atrium was beating spontaneously due to the presence of the sinoatrial node, while the left atrium was stimulated electrically at a rate of 3 beats/sec. by suprathreshold rectangular pulses of 5 millisecond duration. The Tyrode's solution bathing the atria was of the following composition (in mM): NaCl 136.87, KCl 5.36, NaH2 PO4 0.41, CaCl2 1.80, MgCl2 6H2 O 1.05, NaHCO3 11.90, glucose 5.55 and EDTA 0.04. […] The preparation was left to equilibrate for one hour before any drug was added. The bathing fluid was changed 3 to 4 times during the equilibration time. At the end of equilibration period, the drug dissolved in a vehicle or the vehicle alone was added to the tissue bath and the full response recorded. The vehicle used was Tyrode' s solution to which, if required, sufficient acid was added to cause solution of the drug. […] Generally, a dose response study of at least 3 doses was done in the same preparation.

The next data set relates to papillary muscle. The data set can be described thus: Cardiotonic test procedure IB, isolated cat papillary muscle. The settings on record: in vitro. The protocol: The efficacy of this compound was judged, in vitro, on the basis of percent increase in contractile force in isolated cat atria and papillary muscle and, in vitro, on the basis of percent increase in cardiac contractile force in the intact anesthetized dog. Male cats 0.8 to 1.5 kg. were anethetized with α-chloralose (80 mg./kg. i.p.). The chest was opened and the heart excised. The heart was dipped and shaken in Tyrode's solution for the removal of blood from the cavities. The right ventricle was then slit open and the small and thin (about 1 mm. in diameter and 4 to 7 mm. in length) papillary muscles were dissected out. A silver wire was attached to each of the two ends of the papillary muscle. The ventricular end was attached to a platinum electrode and mounted in a tissue bath containing Tyrode's solution described above. The silver wire on the valvular end of the muscle was attached to a force displacement transducer for the measurement of the force and rate of muscle contraction. The muscle was stimulated at a rate of 3 beats/sec. by suprathreshold rectangular pulses of 5 millisecond duration. The rest of the procedure was continued as described above.

The next data set relates to Ba++-induced arrhythmia. The data set is described as follows: Conversion of Ba++-induced arrhythmia in rabbits. The settings on record: 1 × 10^-5 M/kg. The data set is classed as in vivo. Also noted: key: active (A); inactive (I). Here is the method:
as §1
Adult rabbits or either sex weighing between 1.7 and 2.3 kg. were anesthetized with 30 to 35 mg./kg. Na-pentobarbital i.v. via a marginal ear vein. Monoplar ECG pin electrodes were inserted for a lead II display on a Model 5 Grass Polygraph using standard electrocardiographic procedures. A 23 ga. hypodermic needle, attached via a polyethylene catheter to a 10 cc. syringe, was inserted into the same vein as was used for anesthesia. A BaCl2.2H2 O solution in saline was then infused at a constant volume of 0.2 cc/min. from a Harvard Apparatus Model 600 infusion pump. This infusion was not stopped until termination of the experiment. In some studies barium chloride in distilled water was used without detectable differences. The standard rate of BaCl2.2H2 O infusion was established at 0.3 mg./kg./min. (1.2×10^-6 M/kg./min.), and the concentration was adjusted appropriately in each case to accommodate the weight of the rabbit.
When the desired arrhythmia was established, the test compound was introduced as a water or saline solution into the marginal ear vein of the unused ear. The volume used was between 0.5 and 2.0 cc./kg. and was injected as a bolus over approximately 30 seconds. Deviations from standard vehicle, rate of injection and total volume administered were at the discretion of the operator. The standard initial dose of an unknown compound on the first rabbit was 5×10^-5 M/kg. In general, two to three rabbits were used to determine anti-arrhythmic activity and the dose range of activity; multiple doses were administered. Once activity and dose was indicated, two additional rabbits were employed to confirm anti-arrhythmic activity against a multifocal tachycardia.

The nature of data set [5]: Local anesthetic activity (method of Bulbring and Wadja). The data set is classed as in vivo. The settings on record: compared with procaine. The protocol: D. Following a procedure similar to that described in Example 2G but using 2.5 g. (0.0049 mole) of dextrorotatory 4-hydroxy-α-<{[3-(4-methoxyphenyl)-1-methylpropyl]amino}methyl>- 3-(methylthio)benzenemethanol acetate salt (m.p. 124°-126° C., [α]D^25 =+7.7°) and 375 mg. of commercial 40% peracetic acid there was obtained 2.0 g. of 4-hydroxy-α-<{[3-(4-methoxyphenyl)-1-methylpropyl]amino}methyl>-3-(methylsulfinyl)benzenemethanol acetate salt as an amorphous yellow powder [α]D^25 =+4.2° containing a mixture of 4 diastereomeric sulfoxides. […] Exp. Therap. 85, 78 (1945).

Values joined by “and” are separate entries in the source; they are usually repeats but may differ in a detail not shown here. Equal values may be shown once. Where a name gives a salt, the structure may show the parent alone.

Method for systolic blood pressure: Antihypertensive activity was determined on the basis of the observed reduction in systolic blood pressure measured according to the method of H. Kersten et al., J. Lab. and Clin. Med. 32, 1090 (1947) following a single oral medication in the unanesthetized spontaneous hypertensive rat described by Okamato et al., Japan Circulation J. 27, 282 (1963).
^a AHD40 = single oral dose required to induce a 40 mm. average

Regarding `COc1ccc(CC(C)NCC(O)c2ccc(O)c([S+](C)[O-])c2)cc1` (stereo not drawn) [Example 1I, 4-hydroxy-α-<{[2-(4-methoxyphenyl)-1-methylethyl]amino}methyl>-3-(methylsulfinyl)benzenemethanol hydrochloride], in data set [1], the β-adrenergic stimulant activity entry is listed as “ability to block histamine-induced bronchoconstriction in the dog”. For the same compound, the “Dog β-blockade AED50 (approximate intravenous dose for 50% inhibition of isoproterenol-elicited heart rate increase)” value in the data set on β-adrenergic was determined as 0.04 mg/kg. The “Rabbit Ear Artery vasodilation (percentage reduction in perfusion pressure from control level)” value in data set [2] (6.25 × 10^-5 M, 62.5 µM) is 53%. Besides, the ED50 in the data set on hind limb vasculature (Canis lupus familiaris, read-out: Vasodilator activity Dog-Leg Perfusion AED50 (approximate intraarterial dose for 50 reduction in perfusion pressure)) was determined as 0.25 mg/kg. Besides, the “Renal Hypertensive Dog MED10 (minimum repeated oral daily dose for sustained lowering of blood pressure of 10% or greater)” value in the data set on blood pressure came to 1.25 mg/kg. In the data set with systolic blood pressure, the “Antihypertensive activity SH Rat AHD40 (single oral dose required to induce a 40 mm. average reduction in systolic blood pressure)” value was 2.0 mg/kg.
What is called LD50 is the dose expected to kill half of the subjects tested. With `COc1ccc(CCC(C)NCC(O)c2ccc(O)c([S+](C)[O-])c2)cc1` (stereo not drawn) [Example 5E, 4-hydroxy-α-<{[3-(4-methoxyphenyl)-1-methylpropyl]amino}methyl>-3-(methylsulfinyl)benzenemethanol acetate salt], the “Body weight and gross tissue changes” value in “7-day oral LD50 in rats” (animals sacrificed 7 days post-medication) is “No changes in body weight and no gross tissue changes”. Besides, the “7-day oral LD50” value in the data set “7-day oral LD50 in rats” (oral, rats, two separate batches, acetate salt, 10080 min) was 1940 mg/kg. In the data set “7-day oral LD50 in rats” (rat, in vivo, po, rats, two separate batches), this compound showed a median lethal dose (LD50) at 168 h of 1850 mg/kg.
As for `COc1ccc(CCC(C)NCC(O)c2ccc(O)c([S+](C)[O-])c2)cc1` (stereo not drawn) [Example 5H, 4-hydroxy-α-<{[3-(4-methoxyphenyl)-1-methylpropyl]amino}methyl>-3-(methylsulfinyl)benzenemethanol hydrochloride], the “Change in heart rate” value in data set [3] (2 of 3 dogs) is reported as “no significant change in heart rate”. Moreover, the “Maximum increase in cardiac contractile force” value in data set [3] (2 of 3 dogs, I, hydrochloride) is 25% and 42%. In addition, the “Decrease in contractile force” value in data set [3] (remaining dog) is given as 30%. In addition, the “Decrease in heart rate” value in data set [3] (remaining dog) amounted to 33%. Also, the “Rabbit Ear Artery vasodilation (percentage reduction in perfusion pressure from control level)” value in data set [2] (1 × 10^-4 M, 100 µM, hydrochloride) was found to be 64%. Besides, in data set [4], the “Conversion of Ouabain-induced Arrhythmia” value is “A”. Moreover, the “Increase in right atrial force” value in the data set on isolated cat atria (1 mg./ml.) turned out to be 52%; with isolated cat atria (10 mcg./ml.) it was 46%. Besides, the entries for the “Increase in right atrial rate” value in the data set on isolated cat atria (1 mg./ml.) and in the data set on isolated cat atria (10 mcg./ml.) were 62% and 53%, respectively. Moreover, the “Cardiotonic activity (in words)” value in the data set with isolated cat atria (one or more of the cardiotonic test procedures) was “useful cardiotonic activity”. The “Decrease in papillary muscle force” value with papillary muscle (1 mg./ml.) amounted to 14%; in the data set with papillary muscle (10 mcg./ml.), 12%. Further, the “Conversion of Ba++-induced Arrhythmia” value with Ba++-induced arrhythmia is listed as “A”.
As for `COc1ccc(CCC(C)NCC(O)c2ccc(O)c([S+](C)[O-])c2)cc1` (stereo not drawn) [Example 5D, 4-hydroxy-α-<{[3-(4-methoxyphenyl)-1-methylpropyl]amino}methyl>-3-(methylsulfinyl)benzenemethanol acetate salt], in the data set with β-adrenergic (acetate salt), the “Dog β-blockade AED50 (approximate intravenous dose for 50% inhibition of isoproterenol-elicited heart rate increase)” value stood at 0.125 mg/kg. Also, the “Rabbit Ear Artery vasodilation (percentage reduction in perfusion pressure from control level)” value in [2] (5 × 10^-5 M, 50 µM, acetate salt) was 49%. The “Vasodilator activity Dog-Leg Perfusion AED50 (approximate intraarterial dose for 50 reduction in perfusion pressure)” value in the data set on hind limb vasculature (intraarterial, anesthetized dog hind limb, acetate salt) is 0.5 mg/kg. Also, in [5], the Local anesthetic activity entry is reported as “equi-active with procaine as a local anesthetic”. The “Renal Hypertensive Dog MED10 (minimum repeated oral daily dose for sustained lowering of blood pressure of 10% or greater)” value with blood pressure stood at 0.0316 mg/kg. The “Antihypertensive activity SH Rat AHD40 (single oral dose required to induce a 40 mm. average reduction in systolic blood pressure)” value with systolic blood pressure (acetate salt) was determined as 3.0 mg/kg.

The record behind these values is patent US4374149A, “α-{[(Arylalkyl)amino]alkyl}-4-hydroxy-3-(lower-alkylsul finyl)benzenemethanols” (Sterling Drug Inc., priority 1978, dated 1983).
